Data set [1] addresses T1, Recombinant HIV-1 protease (Human immunodeficiency virus type 1 group M subtype B, UniProt P04585).
T1 construct: Recombinant HIV-1 protease (>96% purity); purchased Bachem Bioscience, Inc. (King of Prussia, Pa.)
Kind of data set: HIV protease assay (Ki determination, HPLC readout of substrate III cleavage). The data set is classed as biochemical. How it is done: Recombinant HIV-1 protease (>96% purity) and HIV protease substrate III (the undecapeptide H-His-Lys-Ala-Arg-Val-Leu-Nph-Glu-Ala-Nle-Ser-NH2, 97% purity) were purchased from Bachem Bioscience, Inc. (King of Prussia, Pa.).
The methods employed follow the procedures of Tummino, et al., Archives of Biochemistry and Biophysics, 1995;316:523). […] (total volume, […]). […] The final inhibitor concentrations used were 0 (0.1, 0.2, in some experiments), 0.5, 1, 2, 5, 10, 20, 50, and 100 μM. The solution was mixed, incubated for 5 minutes and the reaction quenched by addition of trifluoracetic acid, 2% final. The (leu-p-nitro-phe) bond of the substrate is cleaved by the enzyme and substrate arid products separated by reverse-phase HPLC. Absorbance was measured at 220 nm, peak areas determined, and percentage conversion to product used to calculate percentage control (=[% conversion (+inhibitor)/% conversion (−inhibitor)]×100).

Data set [2] is described as follows: Cellular toxicity in uninfected CEM cells, XTT (TC50). The note with it: human, uninfected CEM cells (lymphocyte derived). How it is done:
(§1) Compound concentrations were 0.32, 1, 3.2, 10, 32, and 100 uM.
(Formazan colour is commonly taken as a measure of viable cells.)

Data set [3] deals with HIV infected lymphocyte derived CEM cells. The experiment in a line: Cellular infection assay in CEM cells, XTT cytopathic procedure (EC50). The note with it: for TI (therapeutic index, TC50/EC50): CEM cells; for EC50: Human immunodeficiency virus 1, CCRF-CEM, read-out: Antiviral Efficacy EC50. The method, then:
as §1

The mark [4] stands for this setting: recombinant HIV-1 protease, read-out: Inhib of HIV Protease KI.

These results are taken from patent US6528510B1, “HIV protease inhibitors” (Warner-Lambert Company, priority 1998, dated 2003).

Like-named read-outs stand apart in the source and are kept apart here. A value given as a limit tells only on which side of the number the result lay.

As a reminder, the Ki is the dissociation constant of the complex between target and ligand, obtained from inhibition or displacement. One may read the CC50 as the concentration at which the toxic effect on the cells reaches its halfway point. As usually defined, the EC50 is the concentration giving half of the maximal effect. For the molecule `Cc1cnc(CCC2(C(C)C)CC(O)=C(Sc3cc(C)c(CO)cc3C(C)(C)C)C(=O)O2)s1` (racemic) [Example 28, 3-(2-tert-Butyl-4-hydroxymethyl-5-methyl-phenylsulfanyl)-4-hydroxy-6-isopropyl-6-[2-(5-methyl-thiazol-2-yl)-ethyl]-5,6-dihydro-pyran-2-one], the inhibition constant (Ki) in data set [1] stood at 0.24 nM. In data set [2], this molecule displayed a CC50 of 229 µM. In addition, in data set [3], the “TI (therapeutic index, TC50/EC50)” value amounted to 120 and the concentration giving a half-maximal response (EC50) was 1900 nM.
For `Cc1cc(SC2=C(O)CC(CCc3csc(N)n3)(C(C)C)OC2=O)c(C(C)(C)C)cc1CO` (racemic) [Example 89, 6-[2-(2-Amino-thiazol-4-yl)-ethyl]-3-(2-tert-butyl-4-hydroxymethyl-5-methyl-phenylsulfanyl)-4-hydroxy-6-isopropyl-5,6-dihydro-pyran-2-one], the Ki in data set [1] was 0.95 nM. Also, the cytotoxic concentration (CC50) in data set [2] is above 200 µM. Also, in data set [3], the “TI (therapeutic index, TC50/EC50)” value is above 57 and the concentration giving a half-maximal response (EC50) amounted to 3500 nM.
As for `Cc1cc(SC2=C(O)CC(CCc3scnc3C(C)C)(C(C)C)OC2=O)c(C(C)(C)C)cc1CO` (racemic) [Example 33, 3-(2-tert-Butyl-4-hydroxymethyl-5-methyl-phenylsulfanyl)-4-hydroxy-6-isopropyl-6-[2-(4-isopropyl-thiazol-5-yl)-ethyl]-5,6-dihydro-pyran-2-one], the CC50 in data set [2] was 101 µM. Also, in data set [3], the “TI (therapeutic index, TC50/EC50)” value amounted to 72 and the EC50 was determined as 1400 nM.
Regarding `Cc1cc(SC2=C(O)CC(CCc3cc[nH]n3)(C(C)C)OC2=O)c(C(C)(C)C)cc1CO` (racemic) [Example 40, 3-(2-tert-Butyl-4-hydroxymethyl-5-methyl-phenylsulfanyl)-4-hydroxy-6-isopropyl-6-[2-(1H-pyrazol-3-yl)-ethyl]-5,6-dihydro-pyran-2-one], the Ki in data set [1] amounted to 0.28 nM. The CC50 in data set [2] was above 320 µM. In data set [3], the “TI (therapeutic index, TC50/EC50)” value is recorded as above 57 and the EC50 came out at 5600 nM.
Turning to `Cc1cc(SC2=C(O)CC(CCc3cccs3)(C(C)C)OC2=O)c(C(C)(C)C)cc1CO` (centres unmarked) [Example 8, 3-(2-tert-Butyl-4-hydroxymethyl-5-methyl-phenylsulfanyl)-4-hydroxy-6-isopropyl-6-(2-thiophen-2-yl-ethyl)-5,6-dihydro-pyran-2-one], the Ki in data set [1] (setting [4]) is 0.35 nM. This molecule also displayed a CC50 in data set [2] of 80.5 µM. In data set [3], the “TI (therapeutic index, TC50/EC50)” value is reported as 161 and the EC50 is 500 nM.
For `Cc1cc(SC2=C(O)C[C@@](CCc3ccc(O)cc3)(C(C)C)OC2=O)c(C(C)C)c2sc(N)nc12` [Example 18, (S)-3-(2-Amino-7-isopropyl-4-methyl-benzothiazol-6-ylsulfanyl)-4-hydroxy-6-[2-(4-hydroxyl-phenyl)-ethyl]-6-isopropyl-5,6-dihydro-pyran-2-one], in data set [2], the CC50 amounted to 117 µM. Moreover, in data set [3], the “TI (therapeutic index, TC50/EC50)” value turned out to be 105 and the EC50 is 1100 nM.
Take `Cc1cc(SC2=C(O)CC(CCc3ccsc3)(C(C)C)OC2=O)c(C(C)(C)C)cc1NS(=O)(=O)c1ccc(C(F)(F)F)cn1` (racemic) [Example 59, 5-Trifluoromethyl-pyridine-2-sulfonic acid {5-tert-butyl-4-[4-hydroxy-6-isopropyl-2-oxo-6-(2-thiophen-3-yl-ethyl)-5,6-dihydro-2H-pyran-3-ylsulfanyl]-2-methyl-phenyl}-amide]: in data set [1], the Ki was 0.08 nM. The molecule also gave a CC50 in data set [2] of 66 µM. In data set [3], the “TI (therapeutic index, TC50/EC50)” value is on record as 110 and the EC50 was determined as 600 nM.
Molecule `Cc1cc(SC2=C(O)CC(CCc3scnc3C)(C(C)C)OC2=O)c(C(C)(C)C)cc1CO` (centres unmarked) [Example 24, 3-(2-tert-Butyl-4-hydroxymethyl-5-methyl-phenylsulfanyl)-4-hydroxy-6-isopropyl-6-[2-(4-methyl-thiazol-5-yl)-ethyl]-5,6-dihydro-pyran-2-one] showed a CC50 in data set [2] of 164 µM. In data set [3], the “TI (therapeutic index, TC50/EC50)” value is 443 and the 50% effective concentration (EC50) worked out at 370 nM.
On to `Cc1ccc(C(C)(C)C)c(SC2=C(O)CC(CCc3ccc(CO)s3)(C(C)C)OC2=O)c1` (racemic) [Example 55, 3-(2-tert-Butyl-5-methyl-phenylsulfanyl)-4-hydroxy-6-[2-(5-hydroxymethyl-thiophen-2-yl)-ethyl]-6-isopropyl-5,6-dihydro-pyran-2-one], for which the Ki in data set [1] came to 1.7 nM. In data set [2], this molecule registered a CC50 of 66 µM. Further, in data set [3], the “TI (therapeutic index, TC50/EC50)” value came to 8 and the EC50 was 8300 nM.
On to `Cc1csc(CCC2(C(C)C)CC(O)=C(Sc3cc(C)c(CO)cc3C(C)(C)C)C(=O)O2)n1` (centres unmarked) [Example 26, 3-(2-tert-Butyl-4-hydroxymethyl-5-methyl-phenylsulfanyl)-4-hydroxy-6-isopropyl-6-[2-(4-methyl-thiazol-2-yl)-ethyl]-5,6-dihydro-pyran-2-one], for which the Ki in data set [1] (setting [4]) is 0.45 nM. In addition, in data set [2], the CC50 came out at 171 µM. In addition, in data set [3], the “TI (therapeutic index, TC50/EC50)” value worked out at 213 and the 50% effective concentration (EC50) worked out at 800 nM.
With `Cc1cc(SC2=C(O)CC(CCc3cccnc3)(C(C)C)OC2=O)c(C(C)(C)C)cc1CO` (centres unmarked) [Example 2, 3-(2-tert-Butyl-4-hydroxymethyl-5-methyl-phenylsulfanyl)4-hydroxy-6-isopropyl-6-(2-pyridin-3-yl-ethyl)-5,6-dihydro-pyran-2-one], in data set [1] (setting [4]), the Ki turned out to be 0.9 nM.
With `Cc1cc(SC2=C(O)C[C@@](CCc3ccccc3)(C(C)C)OC2=O)c(C(C)C)c2sc(N)nc12` [Example 17, (S)-3-(2-Amino-7-isopropyl-4-methyl-benzothiazol-6-yl-sulfanyl)-4-hydroxy-6-isopropyl-6-phenethyl-5,6-dihydro-pyran-2-one], the CC50 in data set [2] stood at 42 µM. Besides, in data set [3], the “TI (therapeutic index, TC50/EC50)” value is given as 16 and the EC50 is 2700 nM.
Consider `Cc1cc(SC2=C(O)CC(CCc3csc(CO)c3)(C(C)C)OC2=O)c(C(C)(C)C)cc1CO` (centres unmarked) [Example 9], for which the Ki in data set [1] (setting [4]) is 0.19 nM. The molecule also had a CC50 in data set [2] of 210 µM. In data set [3], the “TI (therapeutic index, TC50/EC50)” value was found to be 117 and the EC50 is 1800 nM.
For `Cc1cc(SC2=C(O)CC(CCc3ccsc3CO)(C(C)C)OC2=O)c(C(C)(C)C)cc1N` (centres unmarked) [Example 11, 3-(4-Amino-2-tert-butyl-5-methyl-phenylsulfanyl)-4-hydroxy-6-[2-(2-hydroxymethyl-thiophen-3-yl)-ethyl]-6-isopropyl-5,6-dihydro-pyran-2-one] the same measures were 0.23 nM, 133 µM, 458 and 290 nM.
Turning to `Cc1cc(SC2=C(O)CC(CCc3ccc(CO)s3)(C(C)C)OC2=O)c(C(C)(C)C)cc1O` (racemic) [Example 37, 3-(2-tert-Butyl-4-hydroxy-5-methyl-phenylsulfanyl)-4-hydroxy-6-[2-(5-hydroxymethyl-thiophen-2-yl)-ethyl]-6-isopropyl-5,6-dihydro-pyran-2-one], the Ki in data set [1] is 0.37 nM. The molecule further registered a CC50 in data set [2] of 100 µM. Moreover, in data set [3], the “TI (therapeutic index, TC50/EC50)” value was 24 and the half-maximal effective concentration (EC50) amounted to 4200 nM.
For `Cc1cc(SC2=C(O)CC(CCc3cncnc3)(C(C)C)OC2=O)c(C(C)(C)C)cc1CO` (racemic) [Example 42, 3-(2-tert-Butyl-4-hydroxymethyl-5-methyl-phenylsulfanyl)-4-hydroxy-6-isopropyl-6-(2-pyrimidin-5-yl-ethyl)-5,6-dihydro-pyran-2-one], in data set [2], the CC50 was above 200 µM. Further, in data set [3], the “TI (therapeutic index, TC50/EC50)” value was above 159 and the EC50 was 1300 nM.
